The values that follow come from patent US9493466B2, “Treatment of cancer with TOR kinase inhibitors” (Signal Pharmaceuticals, LLC, priority 2011, dated 2016).

Experiment [1] has as its system NCI-H929 tumor. In words: Human plasma cell myeloma (NCI-H929) study. Format: in vivo, SCID mice. The conditions noted are these: FIG. 19. From the text: Human Plasma Cell Myeloma (NCI-H929) Study. Female SCID mice (Fox Chase SCID®, CB17/Icr-Prkce^scid, Charles River) were 8 weeks old at the beginning of the study. The animals were fed ad libitum water (reverse osmosis, 1 ppm Cl) and NIH 31 Modified and Irradiated Lab Diet® consisting of 18.0% crude protein, 5.0% crude fat, and 5.0% crude fiber. […]
The NCI-H929 tumor cells used for implantation were harvested during log phase growth and resuspended at a concentration of 5×10^7 cells/mL in 50% Matrigel (BD Biosciences). […] Tumor size, in mm^3, was calculated from: […]
Compound 1 was administered via oral gavage (p.o.) once daily for twenty-eight days (qd×28). Treatment efficacy was determined from the calculated tumor volumes on Day 12. MTV(n), the median tumor volume for the number of animals, n, evaluable on the day of analysis, was determined for each group. Percent tumor growth inhibition (% TGI) was defined as the difference between the MTV of the control group and the MTV of the drug-treated group, expressed as a percentage of the MTV of the control group: […]
Each animal was to be euthanized when its neoplasm reached the endpoint volume (2000 mm^3). For each animal whose tumor reached the endpoint volume, the time to endpoint (TTE) was calculated by the following equation: […]

The test system of experiment [2] is BT-483. In words: Growth inhibition assay for breast cancer. In kind it is cell-based. As to conditions: BT-483 (Luminal, ER+), 96 hours. An excerpt:
(§1) Growth Inhibition Assay for Breast Cancer (BC) (Compound 1). All breast cancer cell lines were maintained and tested in appropriate culture media. The seeding density for each cell line was optimized to ensure assay linearity in 384-well plates.
(§2) Increasing concentrations of Compound 1 were spotted via an acoustic dispenser (EDC ATS-100) into an empty 384-well plate. Compound 1 was spotted in a 10-point serial dilution fashion (3-fold dilution) in duplicate within the plate. The dimethyl sulfoxide (DMSO) concentration was kept constant for a final assay concentration of 0.1% DMSO. Plates were replicated for use against different cell lines and testing periods. After compound plate replication, all plates were sealed (Agilent ThermoLoc) and stored at −20° C. for up to 1 month. When ready for testing, plates were removed from the freezer, thawed, and unsealed just prior to the addition of the test cell.
(§3) Prior to testing, cells were grown and expanded in culture flasks to provide sufficient amounts of starting material. Cells were then diluted to their desired densities and added directly to the Compound 1-spotted 384-well plates. Cells were allowed to grow for 96 hours at 37° C./5% CO2. At the time of setup (t0), initial cell number was assessed via a viability assay (Cell Titer-Glo) and read for luminescence. After 96 hours, cell viability of Compound 1-treated cells was assessed via Cell Titer-Glo and read for luminescence.
(§4) Cell lines were assayed for growth inhibition by Compound 1 for at least two independent tests. All data was normalized and represented as a percentage of the DMSO-treated control cells. […] The potency of Compound 1 in different subtypes of breast cancer cell lines is shown in FIG. 7A, while the correlation of Compound 1 sensitivity to ER, HER, PIK3CA, and TP53 status is shown in FIG. 7B.

The test system of experiment [3] is HCC1937. Briefly: Growth inhibition assay for breast cancer. As to conditions: HCC1937 (Basal, TN), 96 hours. Format: cell-based.
Description: as §1, §2, §3, §4

In experiment [4] the test system is NCI/ADR-RES. In words: Growth inhibition assay for breast cancer. Format: cell-based. The conditions noted are these: NCI/ADR-RES (Basal, TN), 96 hours.
Description: as §1, §2, §3, §4

In experiment [5] the test system is EFM-192A. Briefly: Growth inhibition assay for breast cancer. In kind it is cell-based. The conditions noted are these: EFM-192A (Luminal, Her2+), 96 hours.
Description: as §1, §2, §3, §4

The test system of experiment [6] is T47D. In words: Growth inhibition assay for breast cancer. In kind it is cell-based. The conditions noted are these: T47D (Luminal, ER+), 96 hours.
Description: as §1, §2, §3, §4

The subject of experiment [7] is CAL-85-1. In words: Growth inhibition assay for breast cancer. In kind it is cell-based. The conditions noted are these: CAL-85-1 (Basal, TN), 96 hours.
Description: as §1, §2, §3, §4

Experiment [8] relates to AU565. In words: Growth inhibition assay for breast cancer. In kind it is cell-based. As to conditions: AU565 (Luminal, Her2+), 96 hours.
Description: as §1, §2, §3, §4

In experiment [9] the test system is SK-BR-3. In words: Growth inhibition assay for breast cancer. As to conditions: SK-BR-3 (Luminal, Her2+), 96 hours. Format: cell-based.
Description: as §1, §2, §3, §4

The subject of experiment [10] is EFM-19. Briefly: Growth inhibition assay for breast cancer. In kind it is cell-based. The conditions noted are these: EFM-19 (Luminal, ER+), 96 hours.
Description: as §1, §2, §3, §4

The subject of experiment [11] is MDA-MB-175-VII. In words: Growth inhibition assay for breast cancer. The conditions noted are these: MDA-MB-175-VII (Luminal, ER+), 96 hours. Format: cell-based.
Description: as §1, §2, §3, §4

The subject of experiment [12] is ZR-75-30. In words: Growth inhibition assay for breast cancer. In kind it is cell-based. The conditions noted are these: ZR-75-30 (Luminal, Her2+), 96 hours.
Description: as §1, §2, §3, §4

Experiment [13] concerns HCC1143. In words: Growth inhibition assay for breast cancer. The conditions noted are these: HCC1143 (Basal, TN), 96 hours. Format: cell-based.
Description: as §1, §2, §3, §4

The GI50 is the concentration at which growth is held to half of that of the control. As to `CO[C@H]1CC[C@H](N2C(=O)CNc3ncc(-c4ccc(C(C)(C)O)nc4)nc32)CC1` [Compound 1, 7-(6-(2-hydroxypropan-2-yl)pyridin-3-yl)-1-((1r,4r)-4-methoxycyclohexyl)-3,4-dihydropyrazino-[2,3-b]pyrazin-2(1H)-one], in experiment [1] (3 mg/kg and 10 mg/kg p.o. qd×28), the tumor growth delay entry is recorded as “Significant tumor growth delay”. Besides, the tumor growth inhibition result in experiment [1] (10 mg/kg p.o. qd×28) is listed as “Significant tumor growth inhibition”. Besides, the GI50 came out at 21.7 nM in experiment [2]; 697 nM in experiment [3]; 944 nM in experiment [4]; 192 nM in [5]; 55.3 nM in experiment [6]; 253 nM in [7]. Besides, the GI50 was 213 nM in experiment [8]; 121 nM in [9]; 57.2 nM in [10]; 40.8 nM in experiment [11]; 63.4 nM in experiment [12]; 343 nM in experiment [13].
